Laboratory results reported in publication PMC10521662 (Biodesign Research, 2022).

Molecular target: T1, β-PGM (β-phosphoglucomutase) (Pyrococcus horikoshii, UniProt O58510)
T1 construct: gene PH0749; recombinant, plasmid pET20b-βpgm, E. coli BL21(DE3), purified
T1 sequence (O58510 1-230): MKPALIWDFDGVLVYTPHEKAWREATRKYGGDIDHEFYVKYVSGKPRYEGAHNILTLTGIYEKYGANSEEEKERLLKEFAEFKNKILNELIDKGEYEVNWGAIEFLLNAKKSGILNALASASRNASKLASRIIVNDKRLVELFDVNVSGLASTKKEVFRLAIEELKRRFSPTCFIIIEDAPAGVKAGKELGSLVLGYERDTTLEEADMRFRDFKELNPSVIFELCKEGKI
Assay: G6P formation, G6PDH NADH assay at […] nm
Type: biochemical
Conditions: 10 mM β-G1P; 10 mM MgCl2; pH 7.0; 37 °C

O=P(O)(O)O[C@@H]1O[C@H](CO)[C@@H](O)[C@H](O)[C@H]1O [β-G1P]
G6P formation, G6PDH NADH assay at 340 nm: β-PGM was able to utilize β-G1P but showed no activity for α-G1P
